# Where two headings read alike, the source gives them in different places.
# Columns and labels:
# [1] = system: Non-Obese Diabetic (NOD/LtJ) mice; experiment: Diabetes incidence (serum glucose >300 mg/dL) in vitamin D-deficient NOD mice given 1,25(OH)2D3 in the diet; format: in vivo, mouse; conditions: for incidence of diabetes: 50 ng/mouse/day in diet from weaning, at termination of experiment
# Excerpt: Non-Obese Diabetic (NOD/LtJ) mice were purchased from The Jackson laboratory (Bar Harbor, Me. 04609). Mice were maintained on highly purified vitamin D-deficient diet containing 0.47% calcium and 0.3% phosphorus supplemented with vitamins A, E, and K. This diet was solidified by the addition of molten agar to a powdered diet. To obtain vitamin D-deficiency in the offspring, pregnant mothers were maintained on the vitamin D-deficient diet. Then, offspring, once weaned, were further maintained on the vitamin D-deficient diet. […] Treatment with 1,25(OH)2D3 was started at weaning. Animals were bled from the extraorbital sinus with a glass pipette after a four hour fast at 2 pm once a week. Serum glucose was determined using the Trinder glucose oxidase enzyme assay kit purchased from Sigma (St. Louis, Mo.). 5 μL of NOD serum was used as an unknown and analyzed spectrophotometrically at 505 nm against a known glucose standard (Sigma, St. Louis, Mo.). An animal was considered diabetic if its serum glucose was greater than 300 mg/dL.
# [2] = Serum calcium and hypercalcemia in NOD mice given dietary 1,25(OH)2D3 (study A); format: in vivo, mouse; conditions: for serum calcium: 50 ng each day
# Excerpt: Non-Obese Diabetic (NOD/LtJ) mice were purchased from The Jackson laboratory (Bar Harbor, Me. 04609). Mice were maintained on highly purified vitamin D-deficient diet containing 0.47% calcium and 0.3% phosphorus supplemented with vitamins A, E, and K. This diet was solidified by the addition of molten agar to a powdered diet. To obtain vitamin D-deficiency in the offspring, pregnant mothers were maintained on the vitamin D-deficient diet. Then, offspring, once weaned, were further maintained on the vitamin D-deficient diet. […] Animals were bled from the extraorbital sinus with a glass pipette after a four hour fast at 2 pm once a week.
# Blood was immediately centrifuged to obtain serum. Serum was diluted in 0.1% lanthanum chloride, and serum calcium was measured by atomic absorption using a Perkin-Elmer model 3110 atomic absorption spectrometer.
# female NOD/LtJ mice [3] = experiment: Injection vs. Dietary Study: diabetic incidence at day 200; format: in vivo, mouse
# Method: NOD/LtJ mice were fed control diets (purified Diet 11 as described in Suda, et al., J. Nutr. 100:1049-1052 1970, 0.47% calcium +vitamins A, D, E and K) or experimental diets (control +10, 25 or 50 ng of 1,25D3/mouse/day).
# Control (vehicle) animals were injected with 50 μL sterile peanut oil while the experimental animals were injected with 5 μg/kg 1,25D3/mouse/2 days in sterile peanut oil.
# (§1) Mice were weaned at 21 days and placed on the appropriate diets. Injections and experimental diets were administered every 48 hours. Control diets were fed 3 times/week. Every 10 days beginning at day 30 and ending on day 170, mice were weighed and bled for serum calcium determination. Beginning on day 70, mice were tested for glucosuria 3 times/week. If a mouse tested positive, it was fasted for 4 hours and bled to measure serum glucose levels. If the fasting serum glucose level was greater than 300 mg%, the mouse was considered diabetic. All mice remaining at 200 days were sacrificed.
# [4] = mouse, in vivo
# Method: as §1
# NOD/LtJ mice = experiment: Diabetes incidence by 200 days with 1,25(OH)2D3 diet started at weaning, 8 weeks or 100 days (study C); format: in vivo, mouse
# Method: Animals: Mice from an in-house breeding colony of NOD/LtJ mice (Jackson Laboratory) were used for this study. Female mice were randomly weaned into each dietary group. 24 mice were used per group.
# Diet Preparation: Experimental purified diets were prepared containing 0.47% calcium supplemented with 25 IU vitamin D3 (Diet 11). […] All purified powder diets were solidified by mixing with molten agar to ensure animals consumed the exact dose of 1,25(OH)2D3. Each mouse was administered 3.5 grams of powder diet per day.
# Diet Administration: Experimental purified diets were administered beginning at weaning (3 weeks of age) until 200 days of age. 1,25(OH)2D3-containing diet was administered beginning at weaning (group 2), beginning at 8 weeks of age (group 3), or beginning at 100 days of age (group 4).
# Serum glucose determination: Serum glucose was measured using an enzymatic colorimetric assay (Glucose liquicolor, Stanbio, Boerne, Tex.).
# Disease analysis: Urine samples were obtained twice weekly from animals older than 70 days of age and tested for urinary glucose using Diastix (Bayer, Elkhart, Ind.). Serum glucose was measured from animals with urine glucose readings >250 mg/dL. Animals with multiple serum glucose values >300 mg/dL at least 24 hours apart were considered diabetic and sacrificed via CO2 asphyxiation. All remaining animals were sacrificed at 200 days of age.
# female NOD/LtJ mice [5] = experiment: Injection vs. Dietary Study: diabetic incidence at day 200; format: in vivo, mouse; conditions: injection of 50 μg/day (so in the source)
# NOD mice = conditions: cited from earlier work; for total diabetes incidence at 200 days: control 86%
# [6] = administered from 100 to 200 days of age
smiles,measurement,setting,value
"C=C1/C(=C\C=C2/CCC[C@]3(C)[C@@H]([C@H](C)CCCC(C)(C)O)CC[C@@H]23)C[C@@H](O)C[C@@H]1O [1,25(OH)2D3, 1α,25-dihydroxyvitamin D3]",serum glucose values,"[1]; 200 ng group, at any time",≤ 300 mg/dL
same,incidence of diabetes,[1]; female NOD mice,7.69%
same,incidence of diabetes,[1]; male NOD mice,7.14%
same,serum calcium levels (evidence of hypercalcemia),[2]; 200 ng group,≥ 12 mg/dL
same,serum calcium,"[2]; females, at 40 days",10.50 ± 1.53 mg/dL
same,serum calcium,"[2]; females, at 150 days of age",13.10 ± 1.01 mg/dL
same,number of NOD females died of hypercalcemia,"[2]; females, 50 ng, by 150 days of age",7
same,serum calcium,"[2]; males, at 40 days",9.22 ± 0.93 mg/dL
same,serum calcium,"[2]; males, at 150 days of age",12.78 ± 1.11 mg/dL
same,db %=,"female NOD/LtJ mice [3]; 10 ng diet, day 200",11%
same,db n=,"female NOD/LtJ mice [3]; 10 ng diet, day 200, n=9",1
same,db %=,"female NOD/LtJ mice [3]; 25 ng diet, day 200",22%
same,db n=,"female NOD/LtJ mice [3]; 25 ng diet, day 200, n=9",2
same,db %=,"female NOD/LtJ mice [3]; 50 ng diet, day 200",25%
same,db n=,"female NOD/LtJ mice [3]; 50 ng diet, day 200, n=8",2
same,diabetes incidence,"female NOD/LtJ mice [3]; in the diet (oral treatment), day 200",10-25%
same,db %=,"female NOD/LtJ mice [3]; injected 5 μg/kg/2 days in peanut oil, day 200",71%
same,db n=,"female NOD/LtJ mice [3]; injected 5 μg/kg/2 days in peanut oil, day 200, n=7",5
same,incidence of diabetes,"female NOD/LtJ mice [3]; injected, day 200",over 70%
same,hypercalcemia,[4],clearly caused hypercalcemia
same,became diabetic by 200 days of age,"NOD/LtJ mice; 50 ng in diet after 100 days of age (group 4), 23 animals",8.7%
same,animals that became diabetic by 200 days of age,NOD/LtJ mice; 50 ng in diet beginning at 8 weeks of age (group 3),0 of 24
same,became diabetic by 200 days of age,"NOD/LtJ mice; 50 ng in diet from weaning (group 2), 24 mice",4.2%
same,effect of injection on incidence of diabetes,female NOD/LtJ mice [5],increased rather than decreased the incidence of diabetes
same,diabetic incidence,NOD mice; [6],same diabetic incidence as the control group
same,onset of diabetes,NOD mice; [6],appeared to be slightly delayed
same,incidence of diabetes,"NOD mice; female NOD mice, injection of 5 μg/kg, control 56%",8%
same,bone calcium,"NOD mice; mouse, in vivo",reduced
same,total diabetes incidence at 200 days,NOD mice; treated only until 100 days of age,about 35%
same,total diabetes incidence at 200 days,NOD mice; treated until 200 days of age,13%

# Source: patent publication US20060079490A1, “Method of treatment of type I diabetes” (priority 2001, published 2006)
